The subject of series [1] is Trichophyton mentagrophytes. Put plainly: minimum inhibitory concentration, gradient plate method, Trichophyton mentagrophytes. The format is cell-based. The note with it: 72 h, gradient 0-100 μg/ml, 10% aqueous dimethyl formamide, evaluated three days after inoculation, read-out: Minimum Inhibitory Concentration, Fungi, Tri. The source says: (§1) Test evaluation was made three days after inoculation.

In series [2] the test system is Aspergillus niger. Put plainly: minimum inhibitory concentration, gradient plate method, Aspergillus niger. The format is cell-based. The note with it: for MIC: 72 h, gradient 0-100 μg/ml, 10% aqueous dimethyl formamide, evaluated three days after inoculation, read-out: Minimum Inhibitory Concentration, Fungi, Asp. Also noted: key to partial resistancy, Fungi, Asp: partial resistancy observed.
Description: as §1

A short description of series [3]: in vivo. To be noted: mouse, po.
Description: The results of these tests are summarized in the following Table I together with the oral toxicity values (LD50 per os; mice, values in mg per kg of body weight) determined in the conventional manner.
Series [4] deals with Staphylococcus aureus haemolyticus. Description: minimum inhibitory concentration, gradient plate method, Staphylococcus aureus haemolyticus. On the set-up: key to partial resistancy, Bacteria, St: partial resistancy observed. It is filed as cell-based. To be noted: for MIC: 72 h, gradient 0-100 μg/ml, 10% aqueous dimethyl formamide, evaluated three days after inoculation, read-out: Minimum Inhibitory Concentration, Bacteria, St.
Description: as §1

In series [5] the test system is Streptococcus faecalis. Description: minimum inhibitory concentration, gradient plate method, Streptococcus faecalis. The format is cell-based. To be noted: Enterococcus faecalis, 72 h, gradient 0-100 μg/ml, 10% aqueous dimethyl formamide, evaluated three days after inoculation, read-out: Minimum Inhibitory Concentration, Bacteria, Str.
Description: as §1

Take `COCOC(Cn1ccnc1)c1ccc(Cl)cc1Cl` (stereo not drawn) [Example 1, 1-β-(methoxy-methoxy-2,4-dichlorophenethyl)-imidazole nitrate]: the MIC in series [1] and in series [2] was less than 10 µg/mL throughout. Moreover, the LD50 in series [3] amounted to 540 mg/kg.
As to `Clc1ccc(C(Cn2ccnc2)OCOc2ccccc2)c(Cl)c1` (stereo not drawn) [Example 2, 1-β-(phenoxymethoxy-2,4-dichlorophenethyl)-imidazole nitrate], the MIC in series [1] was less than 10 µg/mL; in series [2], less than 10 µg/mL; in series [4] it was 10 µg/mL; in series [5], 25 µg/mL. Besides, the LD50 in series [3] is more than 3000 mg/kg.
Take `Clc1ccc(C(Cn2ccnc2)OCOc2ccccc2Cl)c(Cl)c1` (stereo not drawn) [Example 3, 1-β-(2-chlorophenoxymethoxy-2,4-dichlorophenethyl)-imidazole nitrate]: the MIC in series [1] is less than 10 µg/mL; in series [2], less than 10 µg/mL; in series [4], less than 10 µg/mL; in series [5], 15 µg/mL. In series [3], this molecule showed an LD50 of more than 3000 mg/kg.
Consider `Clc1ccc(OCOC(Cn2ccnc2)c2ccc(Cl)cc2Cl)cc1` (stereo not drawn) [Example 4, 1-β-(4-chlorophenoxymethoxy-2,4-dichlorophenethyl)-imidazole nitrate], for which the MIC in series [1], in series [2], in series [4] and in series [5] was less than 10 µg/mL each time. Further, in series [3], the LD50 is approximately 2750 mg/kg.
Consider `Clc1ccc(OCOC(Cn2ccnc2)c2ccc(Cl)cc2Cl)c(Cl)c1` (stereo not drawn) [Example 5, 1-β-(2,4-dichlorophenoxymethoxy-2,4-dichlorophenethyl)-imidazole nitrate], for which the MIC in series [1], in series [2], in series [4] and in series [5] was less than 10 µg/mL in each case. For the same molecule, the LD50 in series [3] is more than 3000 mg/kg.
Turning to `Cc1ccc(OCOC(Cn2ccnc2)c2ccc(Cl)cc2Cl)cc1` (stereo not drawn) [Example 6, 1-β-(4-methylphenoxymethoxy-2,4-dichlorophenethyl)-imidazole nitrate], the MIC in series [1] was less than 10 µg/mL; in series [2], less than 10 µg/mL; in series [4], less than 10 µg/mL; in series [5], 15 µg/mL. This molecule yielded an LD50 in series [3] of more than 3000 mg/kg.
In the case of `COc1ccc(OCOC(Cn2ccnc2)c2ccc(Cl)cc2Cl)cc1` (stereo not drawn) [Example 7, 1-β-(4-methoxyphenoxymethoxy-2,4-dichlorophenethyl)-imidazole nitrate], the MIC in series [1] was less than 10 µg/mL; in series [2], less than 10 µg/mL; in series [4] it was 10 µg/mL; in series [5], 30 µg/mL. Besides, in series [3], the LD50 turned out to be 2600 mg/kg.
For the molecule `CSc1ccc(OCOC(Cn2ccnc2)c2ccc(Cl)cc2Cl)cc1` (stereo not drawn) [Example 8, 1-β-(4-methylthiophenoxymethoxy-2,4-dichlorophenethyl)-imidazole nitrate], the MIC in series [1] was less than 10 µg/mL; in series [2], less than 10 µg/mL; in series [4] it was 10 µg/mL. Also, the LD50 in series [3] was approximately 2100 mg/kg.
The molecule `Clc1ccc(C(Cn2ccnc2)OCOc2ccc(-c3ccccc3)cc2)c(Cl)c1` (stereo not drawn) [Example 9, 1-β-(phenylphenoxymethoxy-2,4-dichlorophenethyl)-imidazole nitrate] returned an LD50 in series [3] of approximately 3500 mg/kg.
As to `CSCOC(Cn1ccnc1)c1ccc(Cl)cc1Cl` (stereo not drawn) [Example 10, 1-β-(methylthiomethoxy-2,4-dichlorophenethyl)-imidazole nitrate], the MIC in series [1] is less than 10 µg/mL; in series [2], less than 10 µg/mL; in series [4], 20 µg/mL; in series [5], 30 µg/mL. The molecule further showed an LD50 in series [3] of approximately 950 mg/kg.
Regarding `Clc1ccc(C(Cn2ccnc2)OCSc2ccccc2)c(Cl)c1` (stereo not drawn) [Example 11, 1-β-(phenylthiomethoxy-2,4-dichlorophenethyl)-imidazole nitrate], the MIC in series [1] is less than 10 µg/mL; in series [2], less than 10 µg/mL; in series [4], less than 10 µg/mL; in series [5], 20 µg/mL. For the same molecule, the LD50 in series [3] is more than 3000 mg/kg.
For the molecule `Clc1ccc(C(Cn2ccnc2)OCSc2ccc(Br)cc2)c(Cl)c1` (stereo not drawn) [Example 12, 1-β-(4-bromophenylthiomethoxy-2,4-dichlorophenethyl)-imidazole nitrate], the MIC in series [1] was less than 10 µg/mL; in series [2], less than 10 µg/mL; in series [4] it was less than 10 µg/mL; in series [5], 10 µg/mL. The molecule also displayed an LD50 in series [3] of 12500 mg/kg.
In the case of `Clc1ccc(SCOC(Cn2ccnc2)c2ccc(Cl)cc2Cl)cc1` (stereo not drawn) [Example 13, 1-β-(4-chlorophenylthiomethoxy-2,4-dichlorophenethyl)-imidazole nitrate], the MIC in series [1] was less than 10 µg/mL; in series [2], less than 10 µg/mL; in series [4], 10 µg/mL; in series [5], 10 µg/mL. Also, the LD50 in series [3] turned out to be 3850 mg/kg.
Turning to `Cc1ccc(SCOC(Cn2ccnc2)c2ccc(Cl)cc2Cl)cc1` (stereo not drawn) [Example 14, 1-β-(4-methylphenylthiomethoxy-2,4-dichlorophenethyl)-imidazole nitrate], the MIC in series [1], in series [2], in series [4] and in series [5] was less than 10 µg/mL in each case. The molecule also registered an LD50 in series [3] of more than 3000 mg/kg.
`Clc1ccc(C(Cn2ccnc2)OCSc2ccc(Cl)c(Cl)c2)c(Cl)c1` (stereo not drawn) [Example 15, 1-β-(3,4-dichlorophenylthiomethoxy-2,4-dichlorophenethyl)-imidazole nitrate]: the MIC in series [1], in series [4] and in series [5] was less than 10 µg/mL in each case. In addition, in series [2], the “partial resistancy, Fungi, Asp” value is listed as “r”. In addition, the LD50 in series [3] is approximately 7500 mg/kg.
In the case of `Cc1cc(SCOC(Cn2ccnc2)c2ccc(Cl)cc2Cl)ccc1Br` (stereo not drawn) [Example 16, 1-β-(4-bromo-3-methylphenylthiomethoxy-2,4-dichlorophenethyl)-imidazole nitrate], the MIC in series [1] is less than 10 µg/mL; in series [2], less than 10 µg/mL; in series [4], less than 10 µg/mL; in series [5] it was 10 µg/mL. In series [3], the LD50 was more than 3000 mg/kg.
With `Clc1ccc(OCCOCCOC(Cn2ccnc2)c2ccc(Cl)cc2Cl)cc1` (stereo not drawn) [Example 17, 1-{β-[2-(p-chlorophenoxyethoxy)-ethoxy-2,4-dichlorophenethyl]}-imidazole nitrate], the MIC is less than 10 µg/mL in series [1], 10 µg/mL in series [2], less than 10 µg/mL in series [4] and 10 µg/mL in series [5]. Besides, the LD50 in series [3] worked out at 2500 mg/kg.
Turning to `OCCSC(Cn1ccnc1)c1ccc(Cl)cc1Cl` (stereo not drawn) [Example 18, 1-β-(2,4-dichlorophenethyl-β'-hydroxyethylthio)-imidazole nitrate], the MIC in series [1] came to 30 µg/mL; in series [4], 50 µg/mL; in series [5], 40 µg/mL. Besides, the LD50 in series [3] was 1300 mg/kg.
For `CSCOC(Cn1ccnc1)c1ccc(Cc2ccc(Cl)cc2)cc1` (stereo not drawn) [Example 19, 1-[β-methylthiomethoxy-4-(4'-chlorobenzyl)-phenethyl]-imidazole nitrate], the MIC in series [1] was less than 10 µg/mL; in series [2], 10 µg/mL; in series [4] it was 10 µg/mL; in series [5], 25 µg/mL. For the same molecule, the LD50 in series [3] worked out at 970 mg/kg.
Take `Clc1ccc(C(Cn2ccnc2)OCCCOc2ccccc2)c(Cl)c1` (stereo not drawn) [Example 20, 1-β-(3-phenoxypropyloxy-2,4-dichlorophenethyl)-imidazole methane sulfonate]: the MIC in series [1], in series [2], in series [4] and in series [5] was less than 10 µg/mL throughout. For the same molecule, the LD50 in series [3] is approximately 2400 mg/kg.
For `Clc1ccc(SCCSC(Cn2ccnc2)c2ccc(Cl)cc2Cl)cc1` (stereo not drawn) [Example 21, 1-β-(4-chlorophenylthioethylthio-2,4-dichlorophenethyl)-imidazole], the MIC in series [1], in series [2] and in series [4] was less than 10 µg/mL each time. The LD50 in series [3] is more than 3000 mg/kg.
In the case of `Clc1ccc(C(Cn2ccnc2)OCSC2CCCCC2)c(Cl)c1` (stereo not drawn) [Example 22, 1-[β-(cyclohexylthiomethoxy-2,4-dichlorophenethyl)]-imidazole nitrate], the MIC in series [1], in series [2], in series [4] and in series [5] was less than 10 µg/mL throughout. In series [3], the LD50 was more than 3000 mg/kg.
For the molecule `Clc1ccc(CSCOC(Cn2ccnc2)c2ccc(Cl)cc2Cl)cc1` (stereo not drawn) [Example 23, 1-β-(p-chlorobenzylthiomethoxy-2,4-dichlorophenethyl)-imidazole nitrate], the MIC in series [1], in series [2] and in series [4] was less than 10 µg/mL each time. Besides, the 50% lethal dose (LD50) in series [3] is more than 2000 mg/kg.
As for `COc1ccccc1OCOC(Cn1ccnc1)c1ccc(Cl)cc1Cl` (stereo not drawn) [Example 24, 1-β-(2-methoxyphenoxymethyloxy-2,4-dichlorophenethyl)-imidazole nitrate], the MIC in series [1] and in series [2] was less than 10 µg/mL throughout. For the same molecule, the “partial resistancy, Bacteria, St” value in series [4] is reported as “r”. The LD50 in series [3] is approximately 1350 mg/kg.
Regarding `CC(C(OCSc1ccc(Cl)cc1)c1ccc(Cl)cc1Cl)n1ccnc1` (stereo not drawn) [Example 25, 1-[β-(p-chlorophenylthiomethoxy)-2,4-dichlorophenethyl-α-methyl]-imidazole nitrate], the MIC in series [1], in series [4] and in series [5] was less than 10 µg/mL each time. Also, the “partial resistancy, Fungi, Asp” value in series [2] is reported as “r”. The molecule further showed an LD50 in series [3] of more than 10000 mg/kg.
Regarding `Clc1ccc(SCCSC(Cn2ccnc2)c2ccc(Cl)cc2Cl)nc1` (stereo not drawn) [Example 29, 1-{β-[(5'-chloropyridyl-2'-thio-2-ethylthio)-2,4-dichlorophenethyl]}-imidazole], the MIC in series [1], in series [2] and in series [4] was less than 10 µg/mL each time. This molecule also gave an LD50 in series [3] of more than 2000 mg/kg.

Values taken from patent US4177350A, “Imidazole ethyl oxyalkoxy derivatives and thio analogues thereof” (Siegfried Aktiengesellschaft, priority 1977, dated 1979).
